# What was measured:
# [1] = test system: bicistronic HCV replicon (replicon RNA, GenBank Accession No. AJ242654); test: HCV Replicon Assay; assay type: cell-based; conditions: Hepatitis C virus, 72 h, read-out: Replicon IC50
Structure (SMILES),IC50 [1],melting point
"C[C@@H](NS(=O)(=O)c1ccc(-c2c(C#N)c3cc(Cl)ccc3n2C2CCCCC2)nc1)C(F)(F)F [compound 461, 6-(5-chloro-3-cyano-1-cyclohexyl-1H-indol-2-yl)-N-[(2R)-1,1,1-trifluoropropan-2-yl]pyridine-3-sulfonamide]",< 500 nM,226 to 227 °C
"Cc1ccc2c(C#N)c(-c3ncc(S(=O)(=O)NC(CF)CF)cn3)n(CC3CC3)c2c1 [compound 133, 2-[3-cyano-1-(cyclopropylmethyl)-6-methyl-1H-indol-2-yl]-N-(1,3-difluoropropan-2-yl)pyrimidine-5-sulfonamide]",< 500 nM,261 to 262 °C
"CC(C)n1c(-c2ccc(S(=O)(=O)NC(CF)CF)cn2)c(C#N)c2ccc(C3CC3)cc21 [compound 83, 6-[3-cyano-6-cyclopropyl-1-(propan-2-yl)-1H-indol-2-yl]-N-(1,3-difluoropropan-2-yl)pyridine-3-sulfonamide]",< 500 nM,184 to 190 °C
"C[C@H](NS(=O)(=O)c1ccc(-c2c(C#N)c3cc(Cl)ccc3n2C2CCC2)nc1)C1CC1 [compound 119, 6-(5-chloro-3-cyano-1-cyclobutyl-1H-indol-2-yl)-N-[(1S)-1-cyclopropylethyl]pyridine-3-sulfonamide]",< 500 nM,154 to 155 °C
"COc1ccc2c(C#N)c(-c3ccc(S(=O)(=O)N[C@@H](C)C4CC4)cn3)n(C3CCC3)c2c1 [compound 429, 6-(3-cyano-1-cyclobutyl-6-methoxy-1H-indol-2-yl)-N-[(1S)-1-cyclopropylethyl]pyridine-3-sulfonamide]",< 500 nM,193 to 199 °C
"N#Cc1c(-c2ncc(S(=O)(=O)NC(CF)CF)cn2)n(C2CCCCC2)c2cc(Cl)ccc12 [compound 517, 2-(6-chloro-3-cyano-1-cyclohexyl-1H-indol-2-yl)-N-(1,3-difluoropropan-2-yl)pyrimidine-5-sulfonamide]",< 500 nM,228 to 234 °C
"COc1cc2c(C#N)c(-c3ccc(S(=O)(=O)N[C@H](C)C(F)(F)F)cn3)n(C3CCCC3)c2cc1C [compound 694, 6-(3-cyano-1-cyclopentyl-5-methoxy-6-methyl-1H-indol-2-yl)-N-[(2R)-1,1,1-trifluoropropan-2-yl]pyridine-3-sulfonamide]",2000 to 5000 nM,210.5 to 211 °C
"N#Cc1c(-c2ccc(NS(=O)(=O)C3CC3)cn2)n(CC2CC2)c2cc(OC(F)F)ccc12 [compound 270, N-{6-[3-cyano-1-(cyclopropylmethyl)-6-(difluoromethoxy)-1H-indol-2-yl]pyridin-3-yl}cyclopropanesulfonamide]",2000 to 5000 nM,156 to 158 °C
"CCCn1c(-c2ccc(S(=O)(=O)N[C@H](C)C(F)(F)F)cn2)c(C#N)c2ccc(F)cc21 [compound 217, 6-(3-cyano-6-fluoro-1-propyl-1H-indol-2-yl)-N-[(2R)-1,1,1-trifluoropropan-2-yl]pyridine-3-sulfonamide]",2000 to 5000 nM,195 to 197 °C
"Cc1ccc2c(C#N)c(-c3ncc(S(=O)(=O)NC(C)C)cn3)n(C3CCCCC3)c2c1 [compound 98, 2-(3-cyano-1-cyclohexyl-6-methyl-1H-indol-2-yl)-N-(propan-2-yl)pyrimidine-5-sulfonamide]",< 500 nM,196 to 201 °C
"CC(C)n1c(-c2ccc(S(=O)(=O)NC(CF)CF)cn2)c(C#N)c2cc(Cl)ccc21 [compound 65, 6-[5-chloro-3-cyano-1-(propan-2-yl)-1H-indol-2-yl]-N-(1,3-difluoropropan-2-yl)pyridine-3-sulfonamide]",< 500 nM,212 to 215 °C
"Cc1cc2c(cc1O)c(C(N)=O)c(-c1ccc(S(=O)(=O)N[C@@H](C)C(F)(F)F)cn1)n2C1CCC1 [compound 833, 1-cyclobutyl-5-hydroxy-6-methyl-2-(5-{[(2S)-1,1,1-trifluoropropan-2-yl]sulfamoyl}pyridin-2-yl)-1H-indole-3-carboxamide]",500 to 2000 nM,256 to 258 °C
"C[C@H](NS(=O)(=O)c1cnc(-c2c(C#N)c3ccc(Cl)cc3n2C2CCCCC2)nc1)C(F)(F)F [compound 516, 2-(6-chloro-3-cyano-1-cyclohexyl-1H-indol-2-yl)-N-[(2S)-1,1,1-trifluoropropan-2-yl]pyrimidine-5-sulfonamide]",< 500 nM,215 to 220 °C
"Cc1cc2c(cc1F)c(C#N)c(-c1ccc(S(=O)(=O)N[C@H](C)C(F)(F)F)cn1)n2C1CCC1 [compound 609, 6-(3-cyano-1-cyclobutyl-5-fluoro-6-methyl-1H-indol-2-yl)-N-[(2R)-1,1,1-trifluoropropan-2-yl]pyridine-3-sulfonamide]",< 500 nM,211 to 214 °C
"Cc1ccc2c(C#N)c(-c3ncc(S(=O)(=O)N[C@@H](C)C(F)(F)F)cn3)n(C3CCC3)c2c1 [compound 325, 2-(3-cyano-1-cyclobutyl-6-methyl-1H-indol-2-yl)-N-[(2S)-1,1,1-trifluoropropan-2-yl]pyrimidine-5-sulfonamide]",< 500 nM,242 to 243 °C
"CCc1ccc2c(c1)c(C#N)c(-c1ccc(S(=O)(=O)N[C@@H](C)C(F)(F)F)cn1)n2C1CCC1 [compound 339, 6-(3-cyano-1-cyclobutyl-5-ethyl-1H-indol-2-yl)-N-[(2S)-1,1,1-trifluoropropan-2-yl]pyridine-3-sulfonamide]",< 500 nM,168 to 169 °C
"Cc1ccc2c(C#N)c(-c3ncc(S(=O)(=O)N[C@H](C)C(F)(F)F)cn3)n(C3CCCC3)c2c1 [compound 182, 2-(3-cyano-1-cyclopentyl-6-methyl-1H-indol-2-yl)-N-[(2R)-1,1,1-trifluoropropan-2-yl]pyrimidine-5-sulfonamide]",< 500 nM,116 to 118 °C
"CC(C)n1c(-c2ccc(S(=O)(=O)NC(CF)CF)cn2)c(C#N)c2cc(F)ccc21 [compound 60, 6-[3-cyano-5-fluoro-1-(propan-2-yl)-1H-indol-2-yl]-N-(1,3-difluoropropan-2-yl)pyridine-3-sulfonamide]",< 500 nM,168 to 170 °C
"CCn1c(-c2ccc(NS(=O)(=O)C3CC3)cn2)c(C#N)c2ccc(OC(C)C)cc21 [compound 285, N-{6-[3-cyano-1-ethyl-6-(propan-2-yloxy)-1H-indol-2-yl]pyridin-3-yl}cyclopropanesulfonamide]",500 to 2000 nM,180 to 185 °C
"C[C@H](NS(=O)(=O)c1ccc(-c2c(C#N)c3ccc(OC(F)(F)F)cc3n2CC2CC2)nc1)C1CC1 [compound 309, 6-[3-cyano-1-(cyclopropylmethyl)-6-(trifluoromethoxy)-1H-indol-2-yl]-N-[(1S)-1-cyclopropylethyl]pyridine-3-sulfonamide]",< 500 nM,115 to 117 °C
"CCc1cc2c(cc1F)c(C#N)c(-c1cc(C)c(S(=O)(=O)N[C@H](C)C(F)(F)F)cn1)n2-c1ncccn1 [compound 890, 6-[3-cyano-6-ethyl-5-fluoro-1-(pyrimidin-2-yl)-1H-indol-2-yl]-4-methyl-N-[(2R)-1,1,1-trifluoropropan-2-yl]pyridine-3-sulfonamide]",< 500 nM,231 to 236 °C
"CCc1ccc2c(C#N)c(-c3ccc(S(=O)(=O)NC(C)C)cn3)n(C(C)C)c2c1 [compound 75, 6-[3-cyano-6-ethyl-1-(propan-2-yl)-1H-indol-2-yl]-N-(propan-2-yl)pyridine-3-sulfonamide]",< 500 nM,185 to 186 °C
"C[C@H](NS(=O)(=O)c1ccc(-c2c(C(N)=O)c3c(F)cc(OC(F)F)cc3n2C2CCC2)nc1)C(F)(F)F [compound 825, 1-cyclobutyl-6-(difluoromethoxy)-4-fluoro-2-(5-{[(2S)-1,1,1-trifluoropropan-2-yl]sulfamoyl}pyridin-2-yl)-1H-indole-3-carboxamide]",< 500 nM,254 to 256 °C
"CC(C)(C)S(=O)(=O)Nc1ccc(-c2c(C#N)c3ccc(OC(F)F)cc3n2C2CCC2)cn1 [compound 295, N-{5-[3-cyano-1-cyclobutyl-6-(difluoromethoxy)-1H-indol-2-yl]pyridin-2-yl}-2-methylpropane-2-sulfonamide]",2000 to 5000 nM,239 to 240 °C
"CCc1cc2c(cc1F)c(C#N)c(-c1ccc(S(=O)(=O)N[C@@H](C)C(F)(F)F)cn1)n2-c1cccc(F)c1 [compound 1008, 6-[3-cyano-6-ethyl-5-fluoro-1-(3-fluorophenyl)-1H-indol-2-yl]-N-[(2S)-1,1,1-trifluoropropan-2-yl]pyridine-3-sulfonamide]",< 500 nM,210 to 214 °C
"CCc1ccc2c(c1)c(C#N)c(-c1ccc(S(=O)(=O)N[C@@H](C)C(F)(F)F)cn1)n2C1CCCC1 [compound 374, 6-(3-cyano-1-cyclopentyl-5-ethyl-1H-indol-2-yl)-N-[(2S)-1,1,1-trifluoropropan-2-yl]pyridine-3-sulfonamide]",< 500 nM,159.5 to 160.5 °C
"CCc1cc2c(cc1F)c(C#N)c(-c1ccc(S(=O)(=O)N[C@H](C)C(F)(F)F)cn1)n2C1CCC1 [compound 641, 6-(3-cyano-1-cyclobutyl-6-ethyl-5-fluoro-1H-indol-2-yl)-N-[(2R)-1,1,1-trifluoropropan-2-yl]pyridine-3-sulfonamide]",< 500 nM,199 to 199.5 °C
"CC(C)n1c(-c2ncc(S(=O)(=O)N[C@@H](C)C(F)(F)F)cn2)c(C#N)c2cc(F)ccc21 [compound 546, 2-[3-cyano-5-fluoro-1-(propan-2-yl)-1H-indol-2-yl]-N-[(2S)-1,1,1-trifluoropropan-2-yl]pyrimidine-5-sulfonamide]",500 to 2000 nM,172 to 176 °C
"Cc1cc2c(C#N)c(-c3ncc(S(=O)(=O)NC(C)C)cn3)n(C3CCC3)c2cc1Cl [compound 507, 2-(6-chloro-3-cyano-1-cyclobutyl-5-methyl-1H-indol-2-yl)-N-(propan-2-yl)pyrimidine-5-sulfonamide]",500 to 2000 nM,217 to 218 °C
